Measured values from ChEMBL document CHEMBL5291721, “A preclinical secondary pharmacology resource illuminates target-adverse drug reaction associations of marketed drugs” (Nat Commun, 2023).

How the values were obtained:
[1] = target: Sodium channel protein type 5 subunit alpha (Homo sapiens, UniProt Q14524); format: functional, cell-based
[2] = target: Vascular endothelial growth factor receptor 2 (Homo sapiens, UniProt P35968); format: functional
[3] = target: Voltage-dependent N-type calcium channel subunit alpha-1B (Rattus norvegicus, UniProt Q02294); format: functional
[4] = target: Beta-2 adrenergic receptor (Homo sapiens, UniProt P07550)
Chain of Beta-2 adrenergic receptor (P07550 whole entry): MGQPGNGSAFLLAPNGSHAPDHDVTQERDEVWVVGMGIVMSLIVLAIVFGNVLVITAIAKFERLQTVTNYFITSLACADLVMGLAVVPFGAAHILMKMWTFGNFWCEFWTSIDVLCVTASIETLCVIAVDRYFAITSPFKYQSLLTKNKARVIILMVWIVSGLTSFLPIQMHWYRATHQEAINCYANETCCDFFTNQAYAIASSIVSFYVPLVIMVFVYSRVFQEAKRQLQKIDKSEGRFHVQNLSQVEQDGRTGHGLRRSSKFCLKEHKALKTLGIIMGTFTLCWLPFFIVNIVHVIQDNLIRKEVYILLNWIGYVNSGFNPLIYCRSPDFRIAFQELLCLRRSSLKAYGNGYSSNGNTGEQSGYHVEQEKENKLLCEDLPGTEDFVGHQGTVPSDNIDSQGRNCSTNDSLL

[5] = target: Neurotensin receptor type 1 (Homo sapiens, UniProt P30989)
Chain of Neurotensin receptor type 1 (P30989 whole entry): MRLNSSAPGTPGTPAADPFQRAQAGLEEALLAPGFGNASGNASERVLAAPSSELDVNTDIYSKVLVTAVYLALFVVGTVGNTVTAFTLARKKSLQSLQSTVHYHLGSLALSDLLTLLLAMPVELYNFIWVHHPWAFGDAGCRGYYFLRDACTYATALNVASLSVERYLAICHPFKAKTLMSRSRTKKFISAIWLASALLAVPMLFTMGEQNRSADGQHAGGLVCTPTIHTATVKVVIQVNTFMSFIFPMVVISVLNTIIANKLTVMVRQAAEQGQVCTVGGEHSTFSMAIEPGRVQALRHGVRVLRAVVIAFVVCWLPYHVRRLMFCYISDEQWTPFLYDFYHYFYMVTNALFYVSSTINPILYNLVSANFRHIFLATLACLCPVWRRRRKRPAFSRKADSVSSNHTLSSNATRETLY

B1 bradykinin receptor = target: T1, B1 bradykinin receptor (Homo sapiens, UniProt P46663)
T1 sequence (P46663 whole entry): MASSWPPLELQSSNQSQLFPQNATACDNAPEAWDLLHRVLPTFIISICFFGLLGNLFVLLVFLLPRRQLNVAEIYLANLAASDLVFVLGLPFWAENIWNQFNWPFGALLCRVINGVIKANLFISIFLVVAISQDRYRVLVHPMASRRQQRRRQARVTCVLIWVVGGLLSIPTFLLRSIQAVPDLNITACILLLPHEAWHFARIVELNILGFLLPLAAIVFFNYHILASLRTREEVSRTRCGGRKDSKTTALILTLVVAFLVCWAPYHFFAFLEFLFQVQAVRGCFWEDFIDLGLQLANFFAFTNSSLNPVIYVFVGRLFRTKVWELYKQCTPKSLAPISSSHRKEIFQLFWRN

Glucagon receptor = Glucagon receptor (Homo sapiens, UniProt P47871)
Chain of Glucagon receptor (P47871 whole entry): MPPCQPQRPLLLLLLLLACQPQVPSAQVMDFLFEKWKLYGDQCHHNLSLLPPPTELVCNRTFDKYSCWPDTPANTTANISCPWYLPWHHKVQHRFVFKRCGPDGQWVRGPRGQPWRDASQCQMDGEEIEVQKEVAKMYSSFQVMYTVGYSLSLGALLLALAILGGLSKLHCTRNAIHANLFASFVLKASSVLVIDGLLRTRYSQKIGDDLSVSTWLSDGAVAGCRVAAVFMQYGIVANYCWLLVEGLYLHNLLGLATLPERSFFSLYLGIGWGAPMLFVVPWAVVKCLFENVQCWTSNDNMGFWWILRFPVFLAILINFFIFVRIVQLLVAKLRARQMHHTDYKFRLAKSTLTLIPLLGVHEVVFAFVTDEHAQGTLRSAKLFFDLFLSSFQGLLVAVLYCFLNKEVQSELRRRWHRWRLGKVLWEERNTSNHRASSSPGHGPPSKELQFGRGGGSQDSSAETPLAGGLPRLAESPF

[6] = target: T2, Corticotropin-releasing factor receptor 2 (Homo sapiens, UniProt Q13324)
T2 sequence (Q13324 whole entry): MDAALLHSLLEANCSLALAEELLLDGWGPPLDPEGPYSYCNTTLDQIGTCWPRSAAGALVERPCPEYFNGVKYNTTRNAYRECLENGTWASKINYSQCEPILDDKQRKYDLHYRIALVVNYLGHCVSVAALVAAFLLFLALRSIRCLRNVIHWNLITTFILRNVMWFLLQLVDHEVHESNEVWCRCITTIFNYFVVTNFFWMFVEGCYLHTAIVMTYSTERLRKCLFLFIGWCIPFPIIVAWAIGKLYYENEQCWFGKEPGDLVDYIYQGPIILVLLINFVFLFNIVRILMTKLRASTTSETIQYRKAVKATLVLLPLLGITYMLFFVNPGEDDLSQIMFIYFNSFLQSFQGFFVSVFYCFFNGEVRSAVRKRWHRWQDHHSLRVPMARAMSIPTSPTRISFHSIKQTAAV

[7] = target: Beta-3 adrenergic receptor (Homo sapiens, UniProt P13945)
Chain of Beta-3 adrenergic receptor (P13945 whole entry): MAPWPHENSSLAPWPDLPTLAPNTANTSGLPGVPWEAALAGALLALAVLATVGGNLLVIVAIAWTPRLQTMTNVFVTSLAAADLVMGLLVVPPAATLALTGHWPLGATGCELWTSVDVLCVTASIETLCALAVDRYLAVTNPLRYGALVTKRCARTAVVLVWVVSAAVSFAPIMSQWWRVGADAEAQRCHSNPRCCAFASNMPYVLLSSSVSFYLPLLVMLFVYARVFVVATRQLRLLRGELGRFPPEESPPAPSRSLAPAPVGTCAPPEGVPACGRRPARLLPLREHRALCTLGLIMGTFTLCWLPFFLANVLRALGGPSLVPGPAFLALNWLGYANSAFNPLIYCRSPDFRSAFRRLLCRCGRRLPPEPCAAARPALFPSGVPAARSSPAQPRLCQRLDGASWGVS

Progesterone receptor = target: T3, Progesterone receptor (Homo sapiens, UniProt P06401)
T3 sequence (P06401 whole entry): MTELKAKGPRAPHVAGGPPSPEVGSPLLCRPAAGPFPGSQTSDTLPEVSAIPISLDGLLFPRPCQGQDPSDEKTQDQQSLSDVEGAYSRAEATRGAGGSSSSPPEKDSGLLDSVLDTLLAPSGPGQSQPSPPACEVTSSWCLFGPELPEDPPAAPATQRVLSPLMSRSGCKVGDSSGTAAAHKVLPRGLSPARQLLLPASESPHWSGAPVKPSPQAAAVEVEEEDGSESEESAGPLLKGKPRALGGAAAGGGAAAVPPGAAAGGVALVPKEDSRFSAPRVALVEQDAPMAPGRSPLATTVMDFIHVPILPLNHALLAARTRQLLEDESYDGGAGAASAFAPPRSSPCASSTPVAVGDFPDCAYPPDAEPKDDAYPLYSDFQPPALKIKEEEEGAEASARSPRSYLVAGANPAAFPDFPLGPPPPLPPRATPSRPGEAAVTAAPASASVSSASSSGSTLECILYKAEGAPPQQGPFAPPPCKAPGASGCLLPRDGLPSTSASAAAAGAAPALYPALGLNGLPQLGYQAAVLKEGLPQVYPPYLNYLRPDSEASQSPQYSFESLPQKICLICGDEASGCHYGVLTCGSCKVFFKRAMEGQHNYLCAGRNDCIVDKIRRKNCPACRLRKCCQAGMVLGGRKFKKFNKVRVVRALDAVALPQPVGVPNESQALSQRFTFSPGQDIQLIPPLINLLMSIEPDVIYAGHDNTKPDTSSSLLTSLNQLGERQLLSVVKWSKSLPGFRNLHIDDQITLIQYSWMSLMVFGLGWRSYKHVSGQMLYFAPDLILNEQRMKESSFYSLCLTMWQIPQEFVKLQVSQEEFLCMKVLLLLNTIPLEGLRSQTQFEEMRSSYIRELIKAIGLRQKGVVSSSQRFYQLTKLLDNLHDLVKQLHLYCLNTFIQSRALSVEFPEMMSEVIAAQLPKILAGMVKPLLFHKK

[8] = target: T4, 5-hydroxytryptamine receptor 1A (Homo sapiens, UniProt P08908)
T4 sequence (P08908 whole entry): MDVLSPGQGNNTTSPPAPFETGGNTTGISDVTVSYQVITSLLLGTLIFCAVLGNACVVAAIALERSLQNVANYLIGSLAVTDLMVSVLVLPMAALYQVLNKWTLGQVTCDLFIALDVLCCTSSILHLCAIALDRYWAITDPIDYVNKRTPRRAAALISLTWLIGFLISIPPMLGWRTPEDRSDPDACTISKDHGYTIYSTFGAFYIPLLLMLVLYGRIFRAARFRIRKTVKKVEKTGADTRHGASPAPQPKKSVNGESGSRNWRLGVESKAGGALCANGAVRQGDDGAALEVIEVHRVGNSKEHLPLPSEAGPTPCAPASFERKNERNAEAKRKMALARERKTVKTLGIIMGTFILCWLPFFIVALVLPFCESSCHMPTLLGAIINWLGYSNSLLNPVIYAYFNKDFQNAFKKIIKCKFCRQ
Note: assay procedure not described here.

Chain of Sodium channel protein type 5 subunit alpha (Q14524 whole entry): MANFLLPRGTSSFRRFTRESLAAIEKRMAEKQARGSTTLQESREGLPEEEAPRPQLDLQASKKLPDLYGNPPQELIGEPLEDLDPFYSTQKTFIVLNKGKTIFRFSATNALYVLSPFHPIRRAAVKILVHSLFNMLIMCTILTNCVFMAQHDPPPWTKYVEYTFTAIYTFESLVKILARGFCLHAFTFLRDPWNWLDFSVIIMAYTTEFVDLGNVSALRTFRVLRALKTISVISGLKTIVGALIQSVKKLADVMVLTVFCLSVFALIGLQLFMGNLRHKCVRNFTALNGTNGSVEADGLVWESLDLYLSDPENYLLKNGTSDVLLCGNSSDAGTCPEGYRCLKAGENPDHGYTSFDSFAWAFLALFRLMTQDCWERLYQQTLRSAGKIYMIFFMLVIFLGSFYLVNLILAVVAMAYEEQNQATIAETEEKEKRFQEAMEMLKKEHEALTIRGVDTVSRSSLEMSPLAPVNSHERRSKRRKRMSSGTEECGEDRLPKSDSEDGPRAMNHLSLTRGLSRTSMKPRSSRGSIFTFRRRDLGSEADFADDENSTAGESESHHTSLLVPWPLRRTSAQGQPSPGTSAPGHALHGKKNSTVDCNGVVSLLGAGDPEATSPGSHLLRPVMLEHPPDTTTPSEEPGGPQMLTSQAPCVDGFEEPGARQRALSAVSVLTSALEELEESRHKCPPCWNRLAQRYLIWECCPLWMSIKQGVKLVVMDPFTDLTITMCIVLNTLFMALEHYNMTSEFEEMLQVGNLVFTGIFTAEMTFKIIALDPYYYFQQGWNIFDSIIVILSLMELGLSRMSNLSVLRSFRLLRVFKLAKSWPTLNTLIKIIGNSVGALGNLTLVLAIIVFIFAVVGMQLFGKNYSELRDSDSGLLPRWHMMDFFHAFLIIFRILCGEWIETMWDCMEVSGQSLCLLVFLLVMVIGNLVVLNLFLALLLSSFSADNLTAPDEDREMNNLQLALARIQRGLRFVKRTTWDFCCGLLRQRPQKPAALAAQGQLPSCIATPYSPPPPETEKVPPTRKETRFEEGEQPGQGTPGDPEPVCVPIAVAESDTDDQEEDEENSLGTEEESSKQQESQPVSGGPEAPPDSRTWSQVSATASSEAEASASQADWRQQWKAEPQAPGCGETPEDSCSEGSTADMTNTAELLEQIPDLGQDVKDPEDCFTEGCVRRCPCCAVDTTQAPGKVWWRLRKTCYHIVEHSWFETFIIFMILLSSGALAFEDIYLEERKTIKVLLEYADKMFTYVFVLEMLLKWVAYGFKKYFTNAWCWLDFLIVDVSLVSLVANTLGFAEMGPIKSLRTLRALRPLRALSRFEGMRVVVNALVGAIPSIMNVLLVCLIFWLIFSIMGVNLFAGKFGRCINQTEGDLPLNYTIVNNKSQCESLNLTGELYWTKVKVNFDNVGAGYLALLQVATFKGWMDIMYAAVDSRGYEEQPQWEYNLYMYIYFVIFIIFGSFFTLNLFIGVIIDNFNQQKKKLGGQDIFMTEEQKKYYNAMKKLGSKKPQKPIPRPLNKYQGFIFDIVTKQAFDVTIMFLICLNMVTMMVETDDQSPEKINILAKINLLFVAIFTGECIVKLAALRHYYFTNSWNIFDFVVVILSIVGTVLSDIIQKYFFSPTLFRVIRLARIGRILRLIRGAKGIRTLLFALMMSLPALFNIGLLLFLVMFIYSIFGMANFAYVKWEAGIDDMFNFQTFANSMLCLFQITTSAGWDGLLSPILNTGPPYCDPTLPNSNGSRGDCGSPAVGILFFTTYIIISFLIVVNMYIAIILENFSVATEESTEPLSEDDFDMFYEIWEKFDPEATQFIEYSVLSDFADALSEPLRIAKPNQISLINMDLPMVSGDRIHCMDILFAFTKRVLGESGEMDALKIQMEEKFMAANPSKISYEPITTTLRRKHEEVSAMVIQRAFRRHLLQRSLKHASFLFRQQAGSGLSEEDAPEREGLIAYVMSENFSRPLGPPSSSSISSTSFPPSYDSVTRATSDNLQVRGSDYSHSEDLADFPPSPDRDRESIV
Chain of Vascular endothelial growth factor receptor 2 (P35968 whole entry): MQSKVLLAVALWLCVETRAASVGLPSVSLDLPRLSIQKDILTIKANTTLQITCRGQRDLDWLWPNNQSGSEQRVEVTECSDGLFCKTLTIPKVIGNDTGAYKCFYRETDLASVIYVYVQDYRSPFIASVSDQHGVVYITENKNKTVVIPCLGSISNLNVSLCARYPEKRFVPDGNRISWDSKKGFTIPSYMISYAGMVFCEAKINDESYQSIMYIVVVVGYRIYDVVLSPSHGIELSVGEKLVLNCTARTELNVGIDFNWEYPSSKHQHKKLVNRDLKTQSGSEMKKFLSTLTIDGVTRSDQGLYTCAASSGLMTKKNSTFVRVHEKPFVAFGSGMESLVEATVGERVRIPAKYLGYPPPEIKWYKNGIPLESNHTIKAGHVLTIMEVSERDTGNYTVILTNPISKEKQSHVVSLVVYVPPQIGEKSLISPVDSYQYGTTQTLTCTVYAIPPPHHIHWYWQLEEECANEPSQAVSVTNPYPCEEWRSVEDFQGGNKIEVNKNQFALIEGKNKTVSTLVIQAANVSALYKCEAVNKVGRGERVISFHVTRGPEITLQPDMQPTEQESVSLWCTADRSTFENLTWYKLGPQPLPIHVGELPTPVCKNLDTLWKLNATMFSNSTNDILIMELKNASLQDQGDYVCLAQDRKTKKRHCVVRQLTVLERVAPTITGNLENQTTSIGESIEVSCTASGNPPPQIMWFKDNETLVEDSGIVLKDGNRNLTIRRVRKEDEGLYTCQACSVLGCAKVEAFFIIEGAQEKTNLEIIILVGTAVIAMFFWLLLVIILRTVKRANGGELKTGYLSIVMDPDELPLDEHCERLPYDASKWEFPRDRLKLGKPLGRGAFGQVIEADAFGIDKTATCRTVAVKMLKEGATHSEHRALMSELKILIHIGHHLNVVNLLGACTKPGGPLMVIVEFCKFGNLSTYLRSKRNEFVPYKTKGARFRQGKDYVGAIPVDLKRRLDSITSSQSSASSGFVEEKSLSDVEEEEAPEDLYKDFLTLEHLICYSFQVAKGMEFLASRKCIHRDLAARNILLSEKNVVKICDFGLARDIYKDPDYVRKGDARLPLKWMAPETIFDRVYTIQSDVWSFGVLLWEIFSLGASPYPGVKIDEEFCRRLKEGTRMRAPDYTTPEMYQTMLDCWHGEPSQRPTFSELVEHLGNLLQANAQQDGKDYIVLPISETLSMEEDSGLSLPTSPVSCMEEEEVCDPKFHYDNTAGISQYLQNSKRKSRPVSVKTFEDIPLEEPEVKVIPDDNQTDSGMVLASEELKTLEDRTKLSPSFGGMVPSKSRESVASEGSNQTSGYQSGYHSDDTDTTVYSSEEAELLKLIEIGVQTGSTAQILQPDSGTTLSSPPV

Row | Compound | AC50 [1] [µM] | AC50 [2] [µM] | AC50 [3] [µM] | AC50 [4] [µM] | AC50 [5] [µM] | AC50 (B1 bradykinin receptor) [µM] | AC50 (Glucagon receptor) [µM] | AC50 [6] [µM] | AC50 [7] [µM] | AC50 (Progesterone receptor) [µM] | AC50 [8] [µM]
1 | C=C(C)[C@@H]1CCC(C)=C[C@H]1c1c(O)cc(CCCCC)cc1O [CANNABIDIOL] | > 10 | > 30 | – | – | – | – | – | – | – | – | –
2 | C[C@H]1Oc2cc(cnc2N)-c2c(nn(C)c2C#N)CN(C)C(=O)c2ccc(F)cc21 [LORLATINIB] | > 30 | > 30 | – | – | – | – | – | – | – | – | –
3 | O=C1NC(=O)C(c2ccccc2)(c2ccccc2)N1 [PHENYTOIN] | > 50 | > 30 | > 10 | > 10 | > 30 | > 30 | > 30 | > 30 | > 30 | > 30 | > 10
